# Reference: patent US9057727B2, “Screening methods using G-protein coupled receptors and related compositions” (The General Hospital Corporation, priority 2007, dated 2015)
# Where two headings read alike, the source gives them in different places. Peptide text beside a SMILES is read from it.
# How the values were obtained:
# [1] = tested on: LLCPK1-B64 cells or SaOS-2 cells; test: cAMP screen of substituted PTHrP(1-28) analogs (% parent); type: cell-based; conditions: parent PTHrP(1-28)NH
# Procedure, shortened: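 LLCPK1-B64 or SaOS-2 cells exposed to peptide analogs at 3×10^−9M with IBMX for 30 minutes at room temperature, then cAMP measured. Each analog's response expressed as percentage of that for parent PTHrP(1-28).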
# SaOS cells = test: cAMP production in SaOS cells, dose-response; type: cell-based
# [2] = biological target: T1, human PTHR, G protein-coupled conformation (RG) (Homo sapiens, UniProt Q03431); test: Competition binding to RG conformation of hPTHR (COS-7 membranes, GαsND, 125I-[Aib1,3,M]PTH(1-15) tracer); conditions: Table 2; read-out: RG binding affinity hPTHR IC50
# T1 construct: expressed in transfected cells; host or cells: COS-7, transient (Fugene-6); membranes
# T1 sequence (Q03431 27-593): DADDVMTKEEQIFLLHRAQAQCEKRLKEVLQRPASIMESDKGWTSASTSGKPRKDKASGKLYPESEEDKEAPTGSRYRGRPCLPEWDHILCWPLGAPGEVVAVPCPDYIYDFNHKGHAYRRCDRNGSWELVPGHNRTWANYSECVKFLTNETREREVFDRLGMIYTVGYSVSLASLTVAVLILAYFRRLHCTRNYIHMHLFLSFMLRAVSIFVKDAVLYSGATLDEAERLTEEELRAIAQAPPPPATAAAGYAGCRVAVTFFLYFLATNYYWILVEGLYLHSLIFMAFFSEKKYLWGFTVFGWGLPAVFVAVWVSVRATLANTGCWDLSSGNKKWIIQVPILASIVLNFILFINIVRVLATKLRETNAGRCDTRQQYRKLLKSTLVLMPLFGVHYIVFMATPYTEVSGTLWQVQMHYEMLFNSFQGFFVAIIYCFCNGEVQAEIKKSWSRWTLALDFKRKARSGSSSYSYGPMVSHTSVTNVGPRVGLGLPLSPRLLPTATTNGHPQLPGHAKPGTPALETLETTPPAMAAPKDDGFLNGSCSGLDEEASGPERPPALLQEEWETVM
# [3] = biological target: T2, human PTHR, G protein-uncoupled conformation (R^0) (Homo sapiens, UniProt Q03431); test: Competition binding to R0 conformation of hPTHR (COS-7 membranes, GTPγS, 125I-PTH(1-34) tracer); conditions: Table 2
# T2 construct: expressed in transfected cells; host or cells: COS-7, transient (Fugene-6)
# T2 sequence (Q03431 27-593): T1 sequence (Q03431 27-593)
# Procedure, shortened: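 Bound versus free radioligand was separated by vacuum filtration after 90 min incubation of COS-7 hPTHR membranes (20-100 μg/mL) with tracer and competing peptides. Non-specific binding came from a saturating unlabeled analog.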
# MC3T3-E1 cells = test: cAMP in MC3T3-E1 cells, dose-response; type: cell-based; conditions: Table 2; read-out: MC3T3-E1 cAMP EC50
# Experimental: In the 1-30 scaffold, Gly, Ser, Leu, Asn, Gln, Trp, Glu, and Lys were substituted at position 29; Gly, Ser, Leu, Asn, Asp, Trp, and Lys were substituted at position 30; and Ser, Leu, Asn, Val, Trp, Glu, and Lys were substituted at position 31. […] These peptides were tested for cAMP activity in MC3T3-E1 cells.
# [4] = Plasma cAMP in C57BL/6 mice after intravenous injection; type: in vivo; conditions: i.v. (Example 4)
# [5] = biological target: T3, hPTH1R (R0 form of the human PTH receptor) (Homo sapiens, UniProt Q03431); test: R0 memb: hPTH1R*PTH( 1-34)+GTPgS
# T3 construct: expressed in transfected cells; host or cells: COS-7, transient (Fugene-6)
# [6] = Serum and urinary calcium and phosphate in TPTX rats; type: in vivo
# Experimental: Five-week-old male Crl:CD(SD) rats were obtained from Charles River Laboratories Japan, Inc. (Kanagawa, Japan) and acclimated for 1 week under standard laboratory conditions at 20-26° C. and 35-75% humidity. The rats received free access to tap water and standard rodent chow (CE-2) containing 1.1% calcium, 1.0% phosphate and 250 IU/100 g of vitamin D3 (Clea Japan, Inc., Shizuoka, Japan).
# Thyroparathyroidectomy (TPTX) was performed on six-week-old rats. TPTX rats were selected for use based on serum ionized calcium (iCa) levels (<1.0 mM) in samples taken from tail vein bleeding at 24 hours or […] after the operation using the electrode method. The TPTX rats were divided into six groups of five animals based on iCa levels at 48 hours after the operation. TPTX-vehicle group intravenously received the vehicle alone (10 mM acetic acid solution) at a dose of 1 ml/kg body weight administered to the tail vein.
# Blood was obtained from the tail vein for detecting iCa at 1, 2, 4, 6, and 24 hours after each injection. Ionized calcium levels were determined by the electrode method using an autoanalyzer (M-634, Chiba Corning Diagnostics Co. Ltd., Tokyo, Japan).
# We also studied the effects of the M-PTH(1-14)/PTHrP(15-36) hybrid peptide (SP-PTH) on serum and urinary calcium and phosphate.
# [7] = Calcemic action in normal rats (blood ionized calcium); type: in vivo
# Procedure, shortened: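 Corrected (pH 7.4) blood ionized calcium tracked from tail-vein samples before and 1, 2, 4 or 6 h after dosing. Peptides diluted in phosphate-citrate/NaCl/Tween 80 buffer, pH 5.0, given i.v. at 1 ml/kg to groups of six 8-week-old female SD-IGS rats; means ± SE versus vehicle.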
# [8] = biological target: T4, ROS 17/2.8 cells (endogenous rat PTHR) (Rattus norvegicus, UniProt P25961); test: Delayed cAMP response in ROS 17/2.8 cells; type: cell-based
# T4 construct: the rat osteoblastic cell line ROS17/2.8, which endogenously expresses the rat PTHR; endogenous in cells; host or cells: ROS 17/2.8 rat osteosarcoma cells (membranes or intact cells)
# T4 sequence (P25961 27-591): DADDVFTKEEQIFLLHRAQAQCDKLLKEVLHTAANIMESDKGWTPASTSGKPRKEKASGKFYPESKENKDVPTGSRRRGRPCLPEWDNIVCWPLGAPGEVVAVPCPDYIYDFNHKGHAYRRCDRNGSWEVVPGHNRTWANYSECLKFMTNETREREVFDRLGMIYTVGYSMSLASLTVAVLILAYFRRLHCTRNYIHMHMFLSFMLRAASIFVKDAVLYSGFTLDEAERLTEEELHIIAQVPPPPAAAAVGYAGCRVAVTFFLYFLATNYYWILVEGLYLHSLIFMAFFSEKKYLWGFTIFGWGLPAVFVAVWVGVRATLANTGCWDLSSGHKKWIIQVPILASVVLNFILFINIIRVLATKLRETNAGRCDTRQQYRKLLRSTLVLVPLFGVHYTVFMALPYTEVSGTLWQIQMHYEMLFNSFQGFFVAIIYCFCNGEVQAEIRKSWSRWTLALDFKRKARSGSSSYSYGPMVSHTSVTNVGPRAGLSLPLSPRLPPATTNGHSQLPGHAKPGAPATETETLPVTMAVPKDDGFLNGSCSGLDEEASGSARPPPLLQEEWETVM
# Experimental: The analogs used were [E^19],Mc-hPTH(1-34)OH (SEQ ID NO:21) and [A^23,E^19],Mc-hPTH(1-34)OH (SEQ ID NO:28) (Mc=Ala^1,3,12,Gln^10,Arg^11,Trp^14, Arg^19).
# The data in FIG. 21B are expressed as a percent of the maximum response observed for each ligand, determined by incubating the cells with ligand in the presence of IBMX for 10 minutes (no ligand wash-out). These values were 67±6; 68±3; and 71±1 pmole/well, respectively. The basal (vehicle) cAMP value was 3.7±0.4 pmole/well.
# Following treatment of cells with a ligand, the intracellular cAMP levels were measured by radioimmuno assay, as described (Shimizu et al., J. Biol. Chem. 276:49003-49012 (2001)). The capacities of ligands to produce a delayed cAMP response in cells after a brief exposure to the ligand was assessed as follows. […]
# [9] = biological target: hPTH1R (RG form of the human PTH receptor); test: RG memb: hPTH1R+dnGS *M-PTH(1-15)
"EC50 (SaOS cells; Table 2, read-out: SaOS camp EC50)","EC50 (SaOS cells; Table 3, read-out: dose-response cAMP in SaOS (EC50))",IC50 [2],R0/RG selectivity ([3]; hPTHR),IC50 ([3]; read-out: R^0 binding affinity hPTHR IC50),EC50 (MC3T3-E1 cells),IC50 [5],"duration of cAMP signaling, in words [8]",IC50 [9],Structure (SMILES),screen cAMP (% parent) [1],"cAMP-inducing activity compared with parent, in words (SaOS cells)","plasma cAMP 10 minutes after injection, in words [4]","duration of calcemic / sCa and sPi effect, in words [6]","duration of calcemic / sCa and sPi effect, in words ([6]; listed as SP-PTH)","serum calcium (sCa) and serum phosphorus (sPi), in words ([6]; single i.v. 1.25 nmol/kg)","urinary calcium 0-6 hours, in words ([6]; single i.v. 1.25 nmol/kg)","urinary phosphate 0-6 hours, in words ([6]; single i.v. 1.25 nmol/kg)","calcemic action compared with control peptides, in words ([7]; normal and TPTX rats)","calcemic action (blood ionized calcium), in words ([7]; normal rats, i.v.)"
0.01 nM,0.01 nM,0.1 nM,18317,1740 nM,0.083 nM,–,–,–,"CC[C@H](C)[C@H](NC(=O)[C@H](CC(C)C)NC(=O)[C@H](CCCCN)NC(=O)[C@H](CC(C)C)NC(=O)[C@H](CC(C)C)NC(=O)[C@H](Cc1ccccc1)NC(=O)[C@H](C)NC(=O)[C@H](CCCNC(=N)N)NC(=O)[C@H](CCCNC(=N)N)NC(=O)[C@H](CCCNC(=N)N)NC(=O)[C@H](CCC(=O)O)NC(=O)[C@H](CC(=O)O)NC(=O)[C@H](CCC(N)=O)NC(=O)[C@@H](NC(=O)[C@H](CO)NC(=O)[C@H](CCCCN)NC(=O)CNC(=O)[C@H](CCCCN)NC(=O)[C@H](CC(=O)O)NC(=O)[C@H](Cc1c[nH]cn1)NC(=O)[C@H](CC(C)C)NC(=O)[C@H](CC(C)C)NC(=O)[C@H](CCC(N)=O)NC(=O)[C@H](Cc1c[nH]cn1)NC(=O)[C@H](CCC(=O)O)NC(=O)[C@H](CO)NC(=O)[C@@H](NC(=O)[C@H](C)N)C(C)C)[C@@H](C)CC)C(N)=O [E18, A22, L25, K26-THrP(1-28)NH, E18,A22,L25,K26-PTHrP(1-28)] (H-AVSEHQLLHDKGKSIQDERRRAFLLKLI-NH2; N-terminus assumed)",340 % parent,Marked enhancements of cAMP-inducing activity,Marked enhancements,–,–,–,–,–,–,–
–,–,–,–,–,–,2.7 nM,prolonged cAMP signaling,0.67 nM,CC[C@H](C)[C@H](NC(=O)[C@H](CCC(=O)O)NC(=O)[C@H](C)NC(=O)[C@@H](NC(=O)[C@H](Cc1c[nH]cn1)NC(=O)[C@@H](NC(=O)[C@H](CCC(=O)O)NC(=O)[C@H](C)NC(=O)[C@@H](NC(=O)[C@H](CC(C)C)NC(=O)[C@H](Cc1c[nH]cn1)NC(=O)[C@H](Cc1c[nH]cn1)NC(=O)[C@H](CC(C)C)NC(=O)[C@H](Cc1ccccc1)NC(=O)[C@H](Cc1ccccc1)NC(=O)[C@H](CCCNC(=N)N)NC(=O)[C@H](CCCNC(=N)N)NC(=O)[C@H](CCCNC(=N)N)NC(=O)[C@H](CC(C)C)NC(=O)[C@H](CC(=O)O)NC(=O)[C@H](CCC(N)=O)NC(=O)[C@@H](NC(=O)[C@H](Cc1c[nH]c2ccccc12)NC(=O)[C@H](CCCCN)NC(=O)[C@H](C)NC(=O)[C@H](CCCNC(=N)N)NC(=O)[C@H](CCC(N)=O)NC(=O)[C@H](Cc1c[nH]cn1)NC(=O)[C@H](CCSC)NC(=O)[C@H](CC(C)C)NC(=O)[C@H](CCC(N)=O)NC(=O)[C@@H](NC(=O)[C@H](CCC(=O)O)NC(=O)[C@H](C)NC(=O)[C@@H](NC(=O)[C@H](C)N)C(C)C)[C@@H](C)CC)[C@@H](C)CC)[C@@H](C)CC)[C@@H](C)CC)[C@@H](C)O)C(=O)O [Mc-PTH(1-14)/PTHrP(15-36)] (H-AVAEIQLMHQRAKWIQDLRRRFFLHHLIAEIHTAEI-OH),–,–,–,prolonged calcemic effects,maintained for 24 hrs,increased sCa and decreased sPi to normal levels within 6 hrs,decreased urinary calcium,increased urinary phosphate level,higher calcemic actions than did PTH(1-34),Prolonged calcemic effects
